The results in this text go back to ChEMBL document CHEMBL1130002, “Synthesis and biological evaluation of the 1,5-diarylpyrazole class of cyclooxygenase-2 inhibitors: identification of 4-[5-(4-methylphenyl)-3-(trifluoromethyl)-1H-pyrazol-1-yl]benze nesulfonamide (SC-58635, celecoxib)” (J Med Chem, 1997).

For data set [1], the species on record is Rattus norvegicus. Put plainly: animal or person. The data set is classed as functional.
The species named for data set [2] is Rattus norvegicus. As to the kind of experiment: animal or person. The data set is classed as functional. This is another data set of the same source.
Description: Effective dose was determined in vivo in male lewis rats by rat adjuvant-induced arthritis assay
The species entered for data set [3] is Rattus norvegicus. As to the kind of experiment: animal or person. It is filed as functional. The source holds these as a separate data set.
Description: Effective dose was determined in vivo in male Dawley rats by rat carrageenan-induced hyperalgesia assay
Data set [4] is described as follows: in vivo. To be noted: male, rat, po, 10 mg/kg.
Data set [5] is filed under the species Rattus norvegicus. Put plainly: animal or person. It is filed as functional. The source holds these as a separate data set.
The nature of data set [6]: in vivo. Conditions: male, rat, po, 20 mg/kg.
Data set [7] in a line: in vivo. To be noted: male, rat, po, 10 mg/kg. The source holds these as a separate data set.
Data set [8] can be described thus: in vivo. To be noted: male, rat, iv, 10 mg/kg.
For data set [9], the species on record is Rattus norvegicus. It is filed as functional, Stomach.
Description: Concentration at which gastric damage will occur was determined in rat
The species named for data set [10] is Rattus norvegicus. As to the kind of experiment: animal or person. Conditions: read-out: Inhibition.
Description: Percent inhibition was determined in vivo in male Dawley rats at a dose of 10 mg/kg by rat carrageenan-induced hyperalgesia assay

Broadly, the ED50 is the dose that gives a 50% effect, or the effect in half of the subjects. Low readings indicate an effect at a small dose, high ones a need for a large dose. Usually half-life stands for how long it takes for the measured level to halve. Low readings indicate rapid decline, high ones slow decline.

Take `NS(=O)(=O)c1ccc(-n2nc(C(F)(F)F)c(Cl)c2-c2ccc(Cl)cc2)cc1`: the values for the ED50 in the data set filed under Rattus norvegicus [1] and in the data set filed under Rattus norvegicus [2] were 8.8 mg/kg and 0.006 mg/kg, respectively.

With `Cc1ccc(-c2cc(C(F)F)nn2-c2ccc(S(N)(=O)=O)cc2)cc1`, the ED50 came to 2.4 mg/kg in the data set filed under Rattus norvegicus [1], 37.3 mg/kg in the data set filed under Rattus norvegicus [3] and 0.35 mg/kg in the data set listed under Rattus norvegicus [2]. Moreover, the half-life in the data set “in vivo [4]” was 3.3 h.

As for `COc1ccc(-c2cc(C(F)F)nn2-c2ccc(S(N)(=O)=O)cc2)cc1`, the ED50 was found to be 13.7 mg/kg in the data set listed under Rattus norvegicus [1], 36 mg/kg in the data set listed under Rattus norvegicus [3] and 0.01 mg/kg in the data set listed under Rattus norvegicus [2].

With `NS(=O)(=O)c1ccc(-n2nc(C(F)(F)F)cc2-c2ccc(Cl)cc2)cc1`, the ED50 came out at 6.6 mg/kg in the data set filed under Rattus norvegicus [5], 5.4 mg/kg in the data set filed under Rattus norvegicus [1] and 0.07 mg/kg in the data set filed under Rattus norvegicus [2]. In addition, in the data set “in vivo [6]”, the half-life is 117 h.

For the compound `N#Cc1cc(-c2ccc(F)cc2)n(-c2ccc(S(N)(=O)=O)cc2)n1`, the ED50 is 7.5 mg/kg in the data set filed under Rattus norvegicus [1], 67.1 mg/kg in the data set listed under Rattus norvegicus [3] and 0.51 mg/kg in the data set listed under Rattus norvegicus [2].

The compound `COc1ccc(-c2cc(C(F)(F)F)nn2-c2ccc(S(N)(=O)=O)cc2)cc1` gave a half-life in “in vivo [7]” of 5.6 h.

`NS(=O)(=O)c1ccc(-n2nc(C(F)F)cc2-c2ccc(Cl)cc2)cc1` had a half-life in “in vivo [8]” of 4.5 h. Besides, the ED50 stood at 13 mg/kg in the data set filed under Rattus norvegicus [1], 7.7 mg/kg in the data set filed under Rattus norvegicus [3] and 0.63 mg/kg in the data set filed under Rattus norvegicus [2].

`Cc1ccc(-c2cc(C(F)(F)F)nn2-c2ccc(S(N)(=O)=O)cc2)cc1` [CELECOXIB] had a half-life in “in vivo [8]” of 3.5 h. The ED50 in the data set filed under Rattus norvegicus [1] was found to be 7.1 mg/kg; in the data set filed under Rattus norvegicus [3] it was 34.5 mg/kg; in the data set listed under Rattus norvegicus [2] it was 0.37 mg/kg.

Turning to `COc1ccc(-c2cc(C(F)F)nn2-c2ccc(S(N)(=O)=O)cc2)cc1F` [DERACOXIB], the half-life in the data set “in vivo [8]” is 3.5 h. In addition, the ED50 was 18.6 mg/kg in the data set listed under Rattus norvegicus [1], 33 mg/kg in the data set filed under Rattus norvegicus [3] and 0.05 mg/kg in the data set filed under Rattus norvegicus [2].

For the compound `COc1ccc2c(c1)c(CC(=O)O)c(C)n2C(=O)c1ccc(Cl)cc1` [INDOMETHACIN], the figures for the ED50 in the data set filed under Rattus norvegicus [1], in the data set filed under Rattus norvegicus [3] and in the data set filed under Rattus norvegicus [2] were 1.15 mg/kg, 4.1 mg/kg and 0.11 mg/kg, respectively. The compound also returned a Ulceration in the data set listed under Rattus norvegicus [9] of 7 mg/kg.

With `COc1ccc2cc([C@H](C)C(=O)O)ccc2c1` [NAPROXEN], the inhibition in vivo at 10 mg/kg in the data set filed under Rattus norvegicus [10] is 66%. This compound had an ED50 in the data set listed under Rattus norvegicus [1] of 1.6 mg/kg. The compound also yielded a Ulceration in the data set filed under Rattus norvegicus [9] of 255 mg/kg.

Turning to `CN1C(C(=O)Nc2ccccn2)=C(O)c2ccccc2S1(=O)=O` [PIROXICAM], the inhibition in vivo at 10 mg/kg in the data set listed under Rattus norvegicus [10] was 52%. The ED50 in the data set listed under Rattus norvegicus [1] was determined as 2.4 mg/kg.

Take `CS(=O)(=O)c1ccc(-n2nc(C(F)(F)F)cc2-c2ccc(F)cc2)cc1` [SC-58125]: the half-life in the data set “in vivo [8]” was 221 h. Further, the ED50 amounted to 10.5 mg/kg in the data set listed under Rattus norvegicus [1], 58.3 mg/kg in the data set filed under Rattus norvegicus [3] and 0.41 mg/kg in the data set filed under Rattus norvegicus [2].
